Laboratory results reported in doi:10.1101/094631v2 (biorxiv, 2017).

Target: BIKE kinase domain (biotinylated) (Homo sapiens, UniProt Q9NSY1)
Test: TR-FRET tracer displacement
Format: binding

Chain of BIKE kinase domain (biotinylated) (Q9NSY1 38-345 limits assumed): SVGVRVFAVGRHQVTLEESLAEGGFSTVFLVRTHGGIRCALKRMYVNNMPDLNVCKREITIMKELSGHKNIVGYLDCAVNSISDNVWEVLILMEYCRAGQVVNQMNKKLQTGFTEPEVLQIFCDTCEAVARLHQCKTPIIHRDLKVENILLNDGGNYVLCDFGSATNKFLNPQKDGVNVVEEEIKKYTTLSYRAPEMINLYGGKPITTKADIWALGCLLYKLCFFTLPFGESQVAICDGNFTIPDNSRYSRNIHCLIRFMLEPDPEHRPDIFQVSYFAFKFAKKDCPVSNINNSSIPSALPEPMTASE

Work on CC(C)C(=O)Nc1n[nH]c2cc(-c3cccc(NS(=O)(=O)C4CC4)c3)ccc12 [compound 2, N-(6-(3-(cyclopropanesulfonamido)phenyl)-1H-indazol-3-yl)isobutyramide] yielded a Ki of 3.1 µM.
